{"source": "paper PMC10482825", "about": "(Scientific Reports, 2023)", "key": {"[1]": {"test_system": "HeLa", "assay_type": "cell-based, human", "details": "24 h, serum-free medium, MTT, 37 °C, 5% CO2; mean ± SD", "procedure": "(§1) The used mammalian cell lines in our study were colorectal adenocarcinoma (Caco2, ATCC-HTB-37), colorectal carcinoma (HCT 116, ATCC-CCL-247), lung carcinoma (A549, ATCC- CCL-185), cervical cancer cells (HeLa, ATCC-CCL-2), neuroblastoma (SH-SY5Y, ATCC- CRL-2266), rhabdomyosarcoma (RD, ATCC- CCL-136) and human embryonic kidney cells (HEK 293, ATCC- CRL-1573). All the cells were maintained into Dulbecco’s Modified Eagle’s Medium (DMEM) supplemented with 10% heat-inactivated fetal bovine serum, 2 mM L-Glutamine, 100 U/ml penicillin–streptomycin (Pen/Strep) at 37 °C in 5% CO2 humidified incubator.\n(§2) First, the cytotoxic effect of 24 h serum deprivation on all the selected cell lines was evaluated by MTT assay, following standard protocols. Briefly, cells were seeded and maintained at 37 °C and 5% CO2 in 24-well plates until they reached 75–80% confluency (zero time). Following washing twice with 1X PBS, cells were incubated in a serum-free medium for 24 h, under the same incubation conditions. The cell viability percentages were calculated and compared to zero time as 100% viability to nullify any possible effects of serum deprivation. Thence, the cell viability percentage of each cell line in response to 24 h treatment with different concentrations of each cryptide in serum-free medium was calculated. […] All the measured cell viability percentages were normalised against the corresponding negative controls."}, "[2]": {"test_system": "Caco-2", "assay_type": "cell-based, human", "details": "24 h, serum-free medium, MTT, 37 °C, 5% CO2; mean ± SD", "procedure": "as §1, §2"}, "[3]": {"test_system": "HCT 116", "assay_type": "cell-based, human", "details": "24 h, serum-free medium, MTT, 37 °C, 5% CO2; mean ± SD", "procedure": "as §1, §2"}, "[4]": {"test_system": "E. coli K-1", "test": "Radial diffusion assay", "assay_type": "cell-based, Escherichia coli (ATCC, 11775)", "details": "5 µl of 500 µM per 3 mm well, 37 °C, mean ± SD", "description": "(§3) The microbial strains used in this study were Bacillus subtilis (ATCC, 11774), Candida albicans (TIMM, 1768), Enterococcus faecalis (ATCC, 33186), Escherichia coli (ATCC, 11775), Klebsiella pneumoniae (ATCC, 13883), Methicillin-resistant Staphylococcus aureus (ATCC, BAA-41), Pseudomonas aeruginosa (ATCC, 10145), Salmonella enterica (ATCC, 14028), Serratia marcescens (ATCC, 13880), Staphylococcus aureus (ATCC, 25923) and Vibrio parahaemolyticus (ATCC, 17802). All microbial strains were cultivated overnight at 37 °C and 200 rpm, then subcultured and incubated for 3 h under the same incubation conditions to obtain the mid-logarithmic growth phase. The cultivated cells were washed twice with 10 mM Tris–HCl containing 5 mM D-glucose at pH 7.4 and suspended in the same buffer to be used in different assays, as previously described.\n(§4) The antimicrobial activity spectra of the selected cryptides were screened against all the mentioned microbial pathogens, except V. parahaemolyticus, by radial diffusion assay as previously described, with slight modifications. […] The plates were then incubated for 18 h, and the antimicrobial activities were measured in the absolute unit (AU), as previously described. […]\n(§5) plate. The plates were then incubated for 12 h at 37 °C and antimicrobial activities were measured in the term of absolute unit (A.U). […]"}, "[5]": {"test_system": "P. aeruginosa", "test": "Radial diffusion assay", "assay_type": "cell-based, Pseudomonas aeruginosa (ATCC, 10145)", "details": "5 µl of 500 µM per 3 mm well, 37 °C, mean ± SD", "description": "as §3, §4, §5"}, "[6]": {"test_system": "S. epidermidis", "test": "Radial diffusion assay", "assay_type": "cell-based", "details": "5 µl of 500 µM per 3 mm well, 37 °C, mean ± SD", "description": "The antimicrobial activity spectra of the selected cryptides were screened against all the mentioned microbial pathogens, except V. parahaemolyticus, by radial diffusion assay as previously described, with slight modifications. We aimed to test different categories of pathogens on the WHO global priority due to their growing resistance to the available antibiotics such as P. aeruginosa, E. coli and K. pneumoniae in the critical category and Salmonella ssp. and S. aureus in the high category. Briefly, a total of 4 × 10^6 CFU of each pathogen was inoculated in 10 mL of an underlay agarose gel [0.03% w/v tryptone soy broth (TSB) medium, 1% w/v agarose and 0.02% v/v Tween 20 in 10 mM Tris–HCl] that was then poured into a 100-mm petri dish. After agarose solidification, 3 mm-diameter wells were punched by a sterile cork borer and 5 µl of 500 µM stock solution from each cryptide was added to each well. Melittin and acidified water were used as positive and negative controls, respectively. […] The plates were then incubated for 18 h, and the antimicrobial activities were measured in the absolute unit (AU), as previously described. […]\nas §5"}, "[7]": {"test_system": "S. enterica", "test": "Radial diffusion assay", "assay_type": "cell-based, Salmonella enterica (ATCC, 14028)", "details": "5 µl of 500 µM per 3 mm well, 37 °C, mean ± SD", "description": "as §3, §4, §5"}, "[8]": {"test_system": "B. subtilis", "test": "Radial diffusion assay", "assay_type": "cell-based, Bacillus subtilis (ATCC, 11774)", "details": "5 µl of 500 µM per 3 mm well, 37 °C, mean ± SD", "description": "as §3, §4, §5"}, "[9]": {"test_system": "C. albicans", "test": "Radial diffusion assay", "assay_type": "cell-based, Candida albicans (TIMM, 1768)", "details": "5 µl of 500 µM per 3 mm well, 37 °C, mean ± SD", "description": "as §3, §4, §5"}, "[10]": {"test_system": "MRSA", "test": "Radial diffusion assay", "assay_type": "cell-based, Methicillin-resistant Staphylococcus aureus (ATCC, BAA-41)", "details": "5 µl of 500 µM per 3 mm well, 37 °C, mean ± SD", "description": "as §3, §4, §5"}, "[11]": {"test_system": "HEK-293", "test": "MTT cytotoxicity on normal cells", "assay_type": "cell-based, human", "details": "25 µM (highest tested concentration), 24 h, serum-free medium", "procedure": "as §1, §2"}, "[12]": {"test_system": "E. faecalis", "test": "Radial diffusion assay", "assay_type": "cell-based, Enterococcus faecalis (ATCC, 33186)", "details": "5 µl of 500 µM per 3 mm well, 37 °C, mean ± SD", "description": "as §3, §4, §5"}, "[13]": {"assay_type": "cell-based", "details": "24 h, serum-free medium, MTT, 37 °C, 5% CO2; mean ± SD; read-out: IC50 (µM) A459", "procedure": "as §1, §2"}, "[14]": {"test_system": "SH-SY5Y", "assay_type": "cell-based", "details": "24 h, serum-free medium, MTT, 37 °C, 5% CO2; mean ± SD", "procedure": "as §1, §2"}, "[15]": {"test_system": "RD", "assay_type": "cell-based", "details": "24 h, serum-free medium, MTT, 37 °C, 5% CO2; mean ± SD", "procedure": "as §1, §2"}, "[16]": {"test_system": "S. marcescens", "test": "Radial diffusion assay", "assay_type": "cell-based, Serratia marcescens (ATCC, 13880)", "details": "5 µl of 500 µM per 3 mm well, 37 °C, mean ± SD", "description": "as §3, §4, §5"}, "[17]": {"test_system": "S. aureus", "test": "Radial diffusion assay", "assay_type": "cell-based, Staphylococcus aureus (ATCC, 25923)", "details": "5 µl of 500 µM per 3 mm well, 37 °C, mean ± SD", "description": "as §3, §4, §5"}, "[18]": {"test_system": "K. pneumoniae", "test": "Radial diffusion assay", "assay_type": "cell-based, Klebsiella pneumoniae (ATCC, 13883)", "details": "5 µl of 500 µM per 3 mm well, 37 °C, mean ± SD", "description": "as §3, §4, §5"}, "[19]": {"test_system": "bacterial pathogens", "details": "salt tolerance; cited from earlier work", "procedure": "For example, Pleurocidin is an AMP isolated from a marine flatfish Pseudopleuronectes americanus (Winter flounder) and has been reported to be active against bacterial pathogens at high NaCl concentrations, up to 625 mM[15]. This potential salt-insensi ..."}}, "data": [{"compound": "CC[C@H](C)[C@H](NC(=O)CN)C(=O)NCC(=O)N[C@@H](C)C(=O)N[C@H](C(=O)N[C@@H](CC(C)C)C(=O)N[C@@H](CCCCN)C(=O)N[C@H](C(=O)N[C@@H](CC(C)C)C(=O)N[C@H](C(=O)N[C@H](C(=O)NCC(=O)N[C@@H](CC(C)C)C(=O)N1CCC[C@H]1C(=O)N[C@@H](C)C(=O)N[C@@H](CC(C)C)C(=O)N[C@H](C(=O)N[C@@H](CO)C(=O)N[C@@H](Cc1c[nH]c2ccccc12)C(=O)N[C@H](C(=O)N[C@@H](CCCCN)C(=O)N[C@@H](CCCNC(=N)N)C(=O)N[C@@H](CCCCN)C(=O)N[C@@H](CCCNC(=N)N)C(=O)N[C@@H](CCC(N)=O)C(=O)N[C@@H](CCC(N)=O)C(N)=O)[C@@H](C)CC)[C@@H](C)CC)[C@@H](C)O)[C@@H](C)O)C(C)C)C(C)C", "note": "[Melittin, reference compound]", "values": [{"measurement": "IC50", "setting": "[1]", "result": "0.9 ± 0.1", "unit": "µM"}, {"measurement": "IC50", "setting": "[2]", "result": "1.2 ± 0.9", "unit": "µM"}, {"measurement": "IC50", "setting": "[3]", "result": "2.1 ± 0.2", "unit": "µM"}, {"measurement": "Antimicrobial activity (inhibition zone) E. coli K-1", "setting": "[4]", "result": "6.5 ± 0.9", "unit": "A.U."}, {"measurement": "Antimicrobial activity (inhibition zone) P. aeruginosa", "setting": "[5]", "result": "6 ± 0.9", "unit": "A.U."}, {"measurement": "Antimicrobial activity (inhibition zone) S. epidermidis", "setting": "[6]", "result": "10.4 ± 1.2", "unit": "A.U."}, {"measurement": "Antimicrobial activity (inhibition zone) S. enterica", "setting": "[7]", "result": "7.8 ± 2", "unit": "A.U."}, {"measurement": "Antimicrobial activity (inhibition zone) B. subtilis", "setting": "[8]", "result": "21.8± 3.1", "unit": "A.U."}, {"measurement": "Antifungal activity (inhibition zone) C. albicans", "setting": "[9]", "result": "14.2 ± 1.4", "unit": "A.U."}, {"measurement": "Antimicrobial activity (inhibition zone) MRSA", "setting": "[10]", "result": "11.8 ± 1.3", "unit": "A.U."}, {"measurement": "Cell death of HEK-293", "setting": "[11]", "result": 78.7, "unit": "%"}, {"measurement": "Antimicrobial activity (inhibition zone) E. faecalis", "setting": "[12]", "result": "11.8 ± 1.3", "unit": "A.U."}, {"measurement": "IC50", "setting": "[13]", "result": "2.3 ± 0.6", "unit": "µM"}, {"measurement": "IC50", "setting": "[14]", "result": "1.7 ± 1", "unit": "µM"}, {"measurement": "IC50", "setting": "[15]", "result": "2.4 ± 0.5", "unit": "µM"}, {"measurement": "Antimicrobial activity (inhibition zone) S. marcescens", "setting": "[16]", "result": "7.7 ± 1", "unit": "A.U."}, {"measurement": "Antimicrobial activity (inhibition zone) S. aureus", "setting": "[17]", "result": "41.5 ± 2.5", "unit": "A.U."}, {"measurement": "Antimicrobial activity (inhibition zone) K. pneumoniae", "setting": "[18]", "result": "11.8 ± 1.3", "unit": "A.U."}]}, {"compound": "Pleurocidin (GWGSFFKKAAHVGKHVGKAALTHYL; UniProt P81941 23-47, looked up) [AMP isolated from a marine flatfish Pseudopleuronectes americanus (Winter flounder)]", "values": [{"measurement": "NaCl concentration up to which active against bacterial pathogens", "setting": "[19]", "result": "up to 625 mM"}]}]}
